Test results published in patent US6500866B1, “1-(adamantyl)amidines and their use in the treatment of conditions generally associated with abnormalities in glutamatergic transmission” (Vernalis Research Limited, priority 1997, dated 2002).
Where a name gives a salt, the structure may show the parent alone.

Key:
[1] = target: PCP site of the NMDA receptor (cortical); experiment: [3H]-MK-801 binding, PCP site of NMDA receptor, rat cortical membranes; settings: rat cortex membranes, [3H]-MK-801 5 nM, 10 μM glutamate, 10 μM glycine
Source text: (§1) The NMDA receptor contains several distinct binding domains that can regulate opening of the cationic channel. The phencyclidine (PCP) site of the NMDA receptor can be radiolabeled with [^3H]-(+)-5-methyl-10,11-dihydro-5H-dibenzo[a,d]cyclohepten-5,10-imine hydrogen maleate, [^3H-MK-801]. The following describes the procedure for determining the affinity of compounds for the PCP site in rat cortical or cerebellar membranes.
(§2) Frozen rat cortex or cerebellum, homogenized in 10 volumes of ice cold 0.32 M. sucrose is centrifuged at 1,000 g for 12 min and the supernatant stored on ice whilst the pellet was resuspended, rehomogenized and recentrifuged twice more. The three final supernatants were pooled and centrifuged at 30,000 g for 40 min at 4° C. to yield P2 pellets. These were resuspended in ice-cold distilled water, and centrifuged at 30,000 g for 50 min at 4° C. Following three further washes in distilled water, the P2 pellets were stored at −20° C. for at least 18 h. On the day of the assay, membrane pellets were thawed at room temperature, resuspended in ice-cold distilled water and centrifuged at 30,000 g for 20 min. The pellets were resuspended in 50 mM tris-HCl (pH:7.4) and recentrifuged twice more before being resuspended in tris-HCl for immediate use in the assay. Binding assays were performed at equilibrium in a total volume of 200 μl, containing, [^3H]-MK-801 (5 nM final conc.), 10 μM glutamate, 10 μM glycine, 160 μl of membrane preparation and additional drugs where appropriate. Non-specific binding was determined using MK-801 (10 μM). The assay was incubated for 120 min at room temperature. The incubation was terminated by rapid filtration through Whatman GF/B filters (pre-soaked in 0.1% PEI solution). The assay tubes and filters were washed five times with 1 ml of ice cold assay buffer. The filters were placed in poly-Q mini vials with approximately 5 ml of scintillation fluid. The vials are then shaken and left for at least 8 hours before being counted on a liquid scintillation counter. To determine the free ligand concentration 3 aliquots (20 μl) of the [^3H]-MK-801 working solution were also counted. Concentration response data for drugs was analysed using a 4 parameter equation fitted by non linear regression. This yielded the half maximally effective drug concentration (IC50) and Hill coefficient.

[2] = target: T1, PCP site of the NMDA receptor (cerebellar); experiment: [3H]-MK-801 binding, PCP site of NMDA receptor, rat cerebellar membranes; settings: rat cerebellum membranes, [3H]-MK-801 5 nM, 10 μM glutamate, 10 μM glycine
T1 construct: IC50(μM) Cerebellum; other: rat cerebellum membranes, [3H]-MK-801 5 nM, 10 μM glutamate, 10 μM glycine
Source text: as §1, §2

[3] = test system: PCP site of the NMDA receptor (cerebellar); experiment: as above; settings: IC50 cortex / IC50 cerebellum
Source text: as §1, §2

SMILES	melting point	IC50 [1]	IC50 [2]	Ratio of cortical to cerebellar binding affinity [3]
CC12CC3CC(C1)CC(C(=N)N)(C3)C2.Cl [Example 12, 3-Methyl-1-adamantanecarboximidamide hydrochloride]	–	96 µM	36 µM	2.7
C=CCNC(=N)C12CC3CC(C)(CC(C)(C3)C1)C2 (as salt: hydrochloride) [Example 6, N-Allyl-3,5-dimethyl-1-adamantanecarboximidamide hydrochloride]	222 to 224 °C	–	–	–
CC12CC3CC(C)(C1)CC(CCC(=N)N)(C3)C2 (as salt: hydrochloride) [Example 11, 3-(3,5-Dimethyl-1-adamantyl)propanimidamide hydrochloride]	246 to 248 °C	–	–	–
CC12CC3(C)CC(C)(C1)CC(C(=N)N)(C2)C3.Cl [Example 13, 3,5,7-Trimethyl-1-adamantanecarboximidamide hydrochloride]	–	43 µM	18 µM	2.4
N=C(N)CC(c1ccccc1)C12CC3CC(CC(C3)C1)C2 (centres unmarked) [Example 18, 3-(1-Adamantyl)-3-phenylpropanimidamide hydrochloride]	–	27 µM	–	–
CC12CC3CC(C)(C1)CC(CC(=N)N)(C3)C2 (as salt: hydrochloride) [Example 5, 3,5-Dimethyl-1-adamantaneacetiniidamide hydrochloride]	252 to 253 °C	–	–	–
CC12CC3CC(C)(C1)CC(CC(=N)N)(C3)C2 [Example 5, 3,5-Dimethyl-1-adamantaneacetiniidamide hydrochloride]	–	82 µM	56 µM	1.5
Cl.N=C(N)C(Cc1ccccc1)C12CC3CC(CC(C3)C1)C2 (centres unmarked) [Example 16, 2-(1-Adamantyl)-3-phenylpropanimidamide hydrochloride]	–	52 µM	27 µM	1.9
Cl.N=C(N)C12CC3CC(C1)CC(c1ccc([N+](=O)[O-])cc1)(C3)C2 [Example 14, 3-(4-Nitrophenyl)-1-adamantanecarboximidamide hydrochloride]	–	406 µM	234 µM	1.7

More lines, main results first:

melting point	SMILES	IC50 [1]	IC50 [2]	Ratio of cortical to cerebellar binding affinity [3]
315 °C (dec.)	CCNC(=N)C12CC3CC(CC(C3)C1)C2 (as salt: hydrochloride) [Example 8, N-Ethyl-1-adamantanecarboximidainide hydrochloride]	–	–	–
252 to 254 °C	C=CCNC(=N)C12CC3CC(CC(C3)C1)C2 (as salt: hydrochloride) [Example 7, N-Allyl-1-adamantanecarboximidamide hydrochloride]	–	–	–
293 °C (dec.)	CN(C)CCNC(=N)C12CC3CC(CC(C3)C1)C2 (as salt: hydrochloride) [Example 10, N-(2-Dimethylaminoethyl)-1-adamantanecarboximidamide dihydrochloride]	–	–	–
242 to 244 °C	N=C(NCc1ccccc1)C12CC3CC(CC(C3)C1)C2 (as salt: hydrochloride) [Example 9, N-Benzyl-1-adamantanecarboximidamide hydrochloride]	–	–	–
210 to 212 °C	CCC12CC3CC(C1)CC(C(=N)N)(C3)C2 (as salt: hydrochloride) [Example 4, 3-Ethyl-1-adamantanecarboximidamide hydrochloride]	–	–	–
215 to 216 °C	N=C(N)C12CC3CC(CC(Cl)(C3)C1)C2 (as salt: hydrochloride) [Example 2, 3-Chloro-1-adamantanecarboximidamide hydrochloride]	–	–	–
221 to 223 °C	N=C(N)C12CC3CC(CC(Br)(C3)C1)C2 (as salt: hydrochloride) [Example 3, 3-Bromo-1-adamantanecarboximidamide hydrochloride]	–	–	–
